Data published in the NIST ThermoML archive (doi:10.1016/j.jct.2013.11.026).
Numbers after ± are expanded uncertainties.

Conditions: 298.15 K, 101.8 kPa, Liquid; for viscosity: Falling or rolling sphere viscometry; for mass density: Vibrating tube method

Structure (SMILES) | viscosity [mPa·s] | mass density [kg/m3]
C=C(C)[C@H]1CC=C(C)CC1 [(R)-1-methyl-4-(1-methylethenyl)cyclohexene] | 0.8599 ± 0.022 | 838.59 ± 1.6
C=C1CC[C@H]2C[C@@H]1C2(C)C [(1S,5S)-6,6-dimethyl-2-methylenebicyclo[3.1.1]heptane] | 1.616 ± 0.034 | 866.93 ± 1
C=C(C)[C@@H]1CC=C(C)C(=O)C1 [l-carvone] | 2.456 ± 0.052 | 958.79 ± 1
CCO [ethanol] | 1.125 ± 0.024 | 785.07 ± 1
C=CC(C)(O)CCC=C(C)C (stereo unspecified) [3,7-dimethyl-1,6-octadien-3-ol] | 4.349 ± 0.092 | 857.28 ± 1
CC(C)=CCCC(C)=CC=O [3,7-dimethyl-2,6-octadienal (cis+trans)] | 2.019 ± 0.043 | 883.42 ± 1
C=CC(C)(CCC=C(C)C)OC(C)=O (stereo unspecified) [linalool acetate] | 2.291 ± 0.049 | 898.64 ± 1
CC1=CCC(C(C)C)=CC1 [1-methyl-4-(1-methylethyl)-1,4-cyclohexadiene] | 1.144 ± 0.031 | 844.9 ± 1.9
